Experimental data reported in paper PMC12028158, “Synthesis and In Vitro Evaluation of the Anticancer Effect of Novel Phosphonium Vindoline Derivatives” (International Journal of Molecular Sciences, 2025).
Where two headings read alike, the source gives them in different places.

Experiments:
Type in all cases: cell-based
[1] = system: A498; test: NCI60 one-dose screen; settings: Homo sapiens, A498, read-out: Growth percent
[2] = system: DU-145; test: NCI60 five-dose screen; settings: Homo sapiens, DU-145
[3] = system: OVCAR-4; test: NCI60 one-dose screen; settings: Homo sapiens, OVCAR-4, read-out: Growth percent
[4] = system: MDA-MB-231/ATCC; test: NCI60 one-dose screen; settings: Homo sapiens, MDA-MB-231, read-out: Growth percent
[5] = system: SW-620; test: NCI60 one-dose screen; settings: Homo sapiens, SW-620, read-out: Growth percent
[6] = system: HCC-2998; test: NCI60 one-dose screen; settings: Homo sapiens, HCC 2998, read-out: Growth percent
[7] = system: MDA-MB-468; test: NCI60 five-dose screen; settings: Homo sapiens, MDA-MB-468
[8] = system: HCT-116; test: NCI60 five-dose screen; settings: Homo sapiens, HCT-116
[9] = system: IGROV1; test: NCI60 one-dose screen; settings: Homo sapiens, IGROV-1, read-out: Growth percent
[10] = system: UACC-257; test: NCI60 five-dose screen; settings: Homo sapiens, UACC-257
[11] = system: UO-31; test: NCI60 one-dose screen; settings: Homo sapiens, UO-31, read-out: Growth percent
[12] = system: NCI/ADR-RES; test: NCI60 one-dose screen; settings: Homo sapiens, read-out: Growth percent
[13] = system: T-47D; test: NCI60 one-dose screen; settings: Homo sapiens, T47D, read-out: Growth percent
[14] = system: COLO 205; test: NCI60 five-dose screen; settings: Homo sapiens, COLO 205
[15] = system: HOP-62; test: NCI60 five-dose screen; settings: Homo sapiens, HOP-62
[16] = system: SF-295; test: NCI60 five-dose screen; settings: Homo sapiens, SF-295
[17] = system: NCI-H460; test: NCI60 five-dose screen; settings: Homo sapiens, NCI-H460
[18] = system: M14; test: NCI60 one-dose screen; settings: Homo sapiens, M14, read-out: Growth percent
[19] = system: NCI-H522; test: NCI60 five-dose screen; settings: Homo sapiens, NCI-H522
[20] = system: SK-MEL-28; test: NCI60 one-dose screen; settings: Homo sapiens, SK-MEL-28, read-out: Growth percent
[21] = system: MALME-3M; test: NCI60 one-dose screen; settings: Homo sapiens, Malme-3M, read-out: Growth percent
[22] = system: 60 human tumor cell lines (NCI60); test: NCI60 one-dose screen, overall mean; settings: for activity at 10 µM: Homo sapiens, 60 cell, read-out: Mean growth percent
[23] = system: HS 578T; test: NCI60 one-dose screen; settings: Homo sapiens, Hs-578T, read-out: Growth percent
[24] = system: K-562; test: NCI60 five-dose screen; settings: Homo sapiens, K562
[25] = system: RPMI-8226; test: NCI60 one-dose screen; settings: Homo sapiens, RPMI-8226, read-out: Growth percent
[26] = system: NCI-H23; test: NCI60 five-dose screen; settings: Homo sapiens, NCI-H23
[27] = system: SF-539; test: NCI60 one-dose screen; settings: Homo sapiens, SF-539, read-out: Growth percent
[28] = system: HCT-15; test: NCI60 one-dose screen; settings: Homo sapiens, HCT-15, read-out: Growth percent
[29] = system: NCI-H322M; test: NCI60 five-dose screen; settings: Homo sapiens
[30] = system: SR; test: NCI60 one-dose screen; settings: Homo sapiens, read-out: Growth percent
[31] = system: OVCAR-3; test: NCI60 five-dose screen; settings: Homo sapiens, OVCAR-3
[32] = system: SF-268; test: NCI60 one-dose screen; settings: Homo sapiens, SF-268, read-out: Growth percent
[33] = system: SNB-75; test: NCI60 one-dose screen; settings: Homo sapiens, SNB-75, read-out: Growth percent
[34] = system: KM12; test: NCI60 five-dose screen; settings: Homo sapiens, KM12
[35] = system: OVCAR-5; test: NCI60 one-dose screen; settings: Homo sapiens, OVCAR-5, read-out: Growth percent
[36] = system: SK-MEL-5; test: NCI60 one-dose screen; settings: Homo sapiens, SK-MEL-5, read-out: Growth percent
[37] = system: SW-620; test: NCI60 five-dose screen; settings: Homo sapiens, SW-620
[38] = system: CCRF-CEM; test: NCI60 one-dose screen; settings: Homo sapiens, read-out: Growth percent
[39] = system: HT29; test: NCI60 one-dose screen; settings: Homo sapiens, HT-29, read-out: Growth percent
[40] = system: SK-OV-3; test: NCI60 five-dose screen; settings: Homo sapiens, SK-OV-3
[41] = system: HCT-116; test: NCI60 one-dose screen; settings: Homo sapiens, HCT-116, read-out: Growth percent
[42] = system: Prostate Cancer panel; test: NCI60 five-dose screen, panel mean; settings: Homo sapiens
[43] = system: A498; test: NCI60 five-dose screen; settings: Homo sapiens, A498
[44] = system: LOX IMVI; test: NCI60 five-dose screen; settings: Homo sapiens
[45] = system: UACC-62; test: NCI60 five-dose screen; settings: Homo sapiens, UACC-62

## CCC12C=CCN3CCC4(c5ccc(OC)cc5N(C)C4C(O)(C(=O)OC)C1OC(=O)CCC[P+](c1ccc(C)cc1)(c1ccc(C)cc1)c1ccc(C)cc1)C32 (stereo not shown) [9a]
[1]
  activity at 10 µM: -88.6%
[2]
  GI50: 0.457 µM
[3]
  activity at 10 µM: -73.5%
[4]
  activity at 10 µM: -94.8%
[5]
  activity at 10 µM: -85.2%
[6]
  activity at 10 µM: -91.4%
[7]
  GI50: 0.165 µM
[8]
  GI50: 0.307 µM
[9]
  activity at 10 µM: -89.5%
[10]
  GI50: 0.272 µM
[11]
  activity at 10 µM: -97.4%
[12]
  activity at 10 µM: 18.1%
[13]
  activity at 10 µM: -78.4%
[14]
  GI50: 0.176 µM
[15]
  GI50: 0.47 µM
[16]
  GI50: 0.521 µM
[17]
  GI50: 0.327 µM
[18]
  activity at 10 µM: -85.3%
[19]
  GI50: 0.258 µM
[20]
  activity at 10 µM: -96.6%
[21]
  activity at 10 µM: -94.4%
[22]
  activity at 10 µM: -78.6%
[22]; one-dose, 10 µM, average over cell lines
  average reduction / average cell death: more than 70%
[23]
  activity at 10 µM: -60.3%
[24]
  GI50: 0.291 µM
[25]
  activity at 10 µM: -56.3%
[26]
  GI50: 0.303 µM
[27]
  activity at 10 µM: -96.6%
[28]
  activity at 10 µM: -91%
[29]
  GI50: 0.785 µM
[30]
  activity at 10 µM: 5.74%
[31]
  GI50: 0.374 µM
[32]
  activity at 10 µM: -46.3%
[33]
  activity at 10 µM: -61.2%
[34]
  GI50: 0.376 µM
[35]
  activity at 10 µM: -95.9%
[36]
  activity at 10 µM: -99.4%
[37]
  GI50: 0.434 µM
[38]
  activity at 10 µM: -67%
[39]
  activity at 10 µM: -80.7%
[40]
  GI50: 0.29 µM
[41]
  activity at 10 µM: -93.4%
[42]; read-out: Mean GI50
  GI50: 0.38 µM
[43]
  GI50: 1.63 µM
[44]
  GI50: 0.333 µM
[45]
  GI50: 0.275 µM

## CC[C@]12C=CCN3CC[C@@]4(c5ccc(OC)cc5N(C)[C@H]4[C@@](O)(C(=O)OC)[C@@H]1OC(=O)CCCC[P+](C1CCCCC1)(C1CCCCC1)C1CCCCC1)[C@@H]32 [10d]
[1]
  activity at 10 µM: -0.04%
[2]
  GI50: 3.65 µM
[3]
  activity at 10 µM: 12.4%
[4]
  activity at 10 µM: -92.8%
[5]
  activity at 10 µM: 2.08%
[6]
  activity at 10 µM: -87.8%
[7]
  GI50: 0.378 µM
[8]
  GI50: 2.94 µM
[9]
  activity at 10 µM: -84.7%
[10]
  GI50: 1.57 µM
[11]
  activity at 10 µM: 78.9%
[12]
  activity at 10 µM: 96.7%
[13]
  activity at 10 µM: 3.83%
[14]
  GI50: 0.377 µM
[15]
  GI50: 3.9 µM
[16]
  GI50: 4.4 µM
[17]
  GI50: 2.71 µM
[18]
  activity at 10 µM: -83.5%
[19]
  GI50: 0.642 µM
[20]
  activity at 10 µM: -86.5%
[21]
  activity at 10 µM: -95.9%
[22]
  activity at 10 µM: -36.6%
[23]
  activity at 10 µM: -35%
[24]
  GI50: 0.983 µM
[25]
  activity at 10 µM: -45%
[26]
  GI50: 2.34 µM
[27]
  activity at 10 µM: -93.9%
[28]
  activity at 10 µM: 75.2%
[29]
  GI50: 5.3 µM
[30]
  activity at 10 µM: 19.5%
[31]
  GI50: 1.93 µM
[32]
  activity at 10 µM: -70.5%
[33]
  activity at 10 µM: -81.4%
[34]
  GI50: 1.72 µM
[35]
  activity at 10 µM: 5.84%
[36]
  activity at 10 µM: -96.2%
[37]
  GI50: 2.75 µM
[38]
  activity at 10 µM: -60.2%
[39]
  activity at 10 µM: -24%
[40]
  GI50: 2.28 µM
[41]
  activity at 10 µM: 4.69%
[42]; read-out: GI50 Mean
  GI50: 2.56 µM
[43]
  GI50: 13.3 µM
[44]
  GI50: 2.9 µM
[45]
  GI50: 1.53 µM

## CC[C@]12C=CCN3CC[C@@]4(c5ccc(OC)cc5N(C)[C@H]4[C@@](O)(C(=O)OC)[C@@H]1OC(=O)CCC[P+](C1CCCCC1)(C1CCCCC1)C1CCCCC1)[C@@H]32 [9d]
[1]
  activity at 10 µM: 21.8%
[2]
  GI50: 3.75 µM
[3]
  activity at 10 µM: 17.7%
[4]
  activity at 10 µM: -90.8%
[5]
  activity at 10 µM: 3.91%
[6]
  activity at 10 µM: -92.6%
[7]
  GI50: 0.313 µM
[8]
  GI50: 2.85 µM
[9]
  activity at 10 µM: -86%
[10]
  GI50: 1.26 µM
[11]
  activity at 10 µM: 76.8%
[12]
  activity at 10 µM: 100%
[13]
  activity at 10 µM: -1.81%
[14]
  GI50: 0.43 µM
[15]
  GI50: 3.68 µM
[16]
  GI50: 4.41 µM
[17]
  GI50: 2.77 µM
[18]
  activity at 10 µM: -78%
[19]
  GI50: 6.88 µM
[20]
  activity at 10 µM: -85.9%
[21]
  activity at 10 µM: -96.1%
[22]
  activity at 10 µM: -32.7%
[23]
  activity at 10 µM: -33%
[24]
  GI50: 1.32 µM
[25]
  activity at 10 µM: -43.5%
[26]
  GI50: 2.31 µM
[27]
  activity at 10 µM: -86.5%
[28]
  activity at 10 µM: 76.6%
[29]
  GI50: 5.79 µM
[30]
  activity at 10 µM: 29.1%
[31]
  GI50: 1.74 µM
[32]
  activity at 10 µM: -54.1%
[33]
  activity at 10 µM: -61.4%
[34]
  GI50: 1.63 µM
[35]
  activity at 10 µM: 11%
[36]
  activity at 10 µM: -98.4%
[37]
  GI50: 2.95 µM
[38]
  activity at 10 µM: -40.9%
[39]
  activity at 10 µM: -56.7%
[40]
  GI50: 2.59 µM
[41]
  activity at 10 µM: 0.16%
[42]; read-out: Mean GI50
  GI50: 2.73 µM
[43]
  GI50: 12.4 µM
[44]
  GI50: 2.88 µM
[45]
  GI50: 1.41 µM
